# Test results taken from patent US7745191B2, “Method of producing heterodimer derivative of protein phosphatase type 2A enzyme” (Tropical Technology Center Ltd., priority 2005, dated 2010).
# Assay: Phosphatase activity of the purified protein using p-nitrophenylphosphate as substrate
# Assay type: biochemical
# Conditions: infected High Five cells incubated at 19° C. for 4 days versus 27° C. for 3 days (comparative example); FIG. 4
# Procedure: By SDS-PAGE (0.2 μg of protein; 10% SDS-gel), the purified recombinant protein in the recovered eluate was confirmed. The activity of the purified protein was determined according to a method using p-nitrophenylphosphate as substrate (Takai et al. 1995, Biochem J. 306:657-665).
# In both figures, the term “27° C.” indicates the tagged catalytic unit of PP2A (comparative example), which was prepared in the same manner as in Example 3 except that the cells infected with the recombinant baculovirus was incubated at 27° C. for 3 days. In FIG. 3, the both end side lanes indicate a marker, the 2nd lane from left indicates the tagged catalytic unit of PP2A prepared by incubation at 27° C., and the 3rd lane from left indicates the tagged catalytic unit of PP2A prepared by incubation at 19° C.
substance,measurement,value
"tagged catalytic unit of PP2A: Recombinant human PP2A catalytic subunit carrying a polyhistidine tag (His-PP2Acα, His-PP2Acβ), expressed in baculovirus-infected High Five cells",enhancement of activity to p-nitrophenylphosphate,≥ 6 times
